Read-outs that look alike come from different tables or passages of the source.
Key:
Coriolus versicolor = assay: MIC, radial hyphal growth on malt extract peptone nutrient agar; format: cell-based; conditions: Trametes versicolor
Procedure: (§1) The synergism was then determined using the method described by Kull et al. (F. C. Kull, P. C. Eismann, H. D. Sylvestrowicz, R. L. Mayer, Applied Microbiology 9, 538 to 541, 1961). Here, the following relationships apply:
(§2) Qa=concentration of substance A which corresponds to the MIC
(§3) Qb=concentration of substance B which corresponds to the MIC
(§4) QA=concentration of substance A in the concentration of A/B which suppresses microbial growth
(§5) QB=concentration of substance B in the concentration of A/B which suppresses microbial growth
(§6) SI=1 means the activities are additive
Various concentrations of prochloraz (A), tebuconazole (B) and mixtures (AB) of the two active compounds mentioned were tested against the wood-destroying Basidiomycetes Coriolus versicolor. Mycelium pieces were punched out of a colony of the wood-destroying organism and incubated at 26° C. on a nutrient agar which contained malt extract peptone. The radial growth of the hypha with and without added active compound was then compared. The minimum inhibitory concentration (MIC) stated below is the lowest concentration of active compound at which the radial growth is suppressed completely.

Trichurus spiralis = assay: MIC on nutrient agar media against soft-rot pathogen; format: cell-based
Procedure: as §1, §2, §3, §4, §5, §6
Various concentrations of prochloraz (A), tebuconazole (B) and mixtures of the two active compounds mentioned (AB) were tested against the soft-rot pathogen Trichurus spiralis on nutrient agar media. The minimum inhibitory concentration (MIC) refers to the value of the active compound or the active compound mixture in question where no growth could be observed.

[1] = system: microorganisms in biologically active soil; assay: Soil burial of treated cotton sailcloth (DIN ENV 807), tear resistance; conditions: cloth drenched with 800 ppm single active compound in ethanol; 4 weeks in biologically active soil
Procedure: Untreated cotton sailcloth consisting of cellulose (500 g/m^2) was drenched with a solution of 800 ppm of prochloraz (A) and 800 ppm of tebuconazole (B) and a mixture (AB) comprising 200 ppm of prochloraz and 200 ppm of tebuconazole in ethanol. The samples were dried at 23° C. and 50% relative atmospheric humidity for 7 days and incorporated into biologically active soil according to DIN ENV 807. After 4 weeks, tear resistance of the cotton cloth was determined as a measure for the protection against destruction by microorganisms achieved by the active compounds.

blueing fungi = conditions: J. A. Drysdale et al., New Zealand Journal of Forestry Science 1982; cited from earlier work

Row | Compound | MIC (Coriolus versicolor; Coriolus versicolor, 26° C., malt extract peptone agar, lowest concentration at which radial growth is suppressed completely, read-out: MIC) [µg/mL] | MIC (Trichurus spiralis; nutrient agar, concentration where no growth could be observed, read-out: MIC) [µg/mL] | tear resistance of the cotton cloth [1] | MIC (Coriolus versicolor) [µg/mL] | activity against blueing fungi (blueing fungi) | MIC (Trichurus spiralis) [µg/mL]
1 | CC(C)(C)C(O)(CCc1ccc(Cl)cc1)Cn1cncn1 (stereo not shown) [B, tebuconazole] | 0.3 | 200 | easy to tear | – | – | –
2 | CCCN(CCOc1c(Cl)cc(Cl)cc1Cl)C(=O)n1ccnc1 [A, N-propyl-N-[2-(2,4,6-trichlorophenoxy)ethyl]imidazole-1-carboxamide] | – | – | easy to tear | 6 | insufficiently active | 5
